Experiment [1] concerns the target T1, 2-Hydroxyacid oxidase 2 (Homo sapiens, UniProt Q9NYQ3).
T1 sequence (Q9NYQ3 whole entry): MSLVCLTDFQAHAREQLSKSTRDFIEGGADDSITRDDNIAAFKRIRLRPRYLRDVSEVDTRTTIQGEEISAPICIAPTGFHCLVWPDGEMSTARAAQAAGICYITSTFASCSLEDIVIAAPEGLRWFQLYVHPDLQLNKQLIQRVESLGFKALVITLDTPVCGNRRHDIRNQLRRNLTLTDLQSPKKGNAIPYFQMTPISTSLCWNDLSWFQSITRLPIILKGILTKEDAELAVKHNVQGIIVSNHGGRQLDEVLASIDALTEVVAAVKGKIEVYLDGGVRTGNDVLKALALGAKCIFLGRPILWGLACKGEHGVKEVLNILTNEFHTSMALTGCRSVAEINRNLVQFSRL
As to the kind of experiment: Inhibition of human Hao2-mediated oxidation of 2-hydroxyoctanoic acid assessed as proportionate release of H2O2.

In experiment [2] the target is T2, 2-Hydroxyacid oxidase 2 (Rattus norvegicus) (UniProt Q07523).
T2 sequence (whole entry): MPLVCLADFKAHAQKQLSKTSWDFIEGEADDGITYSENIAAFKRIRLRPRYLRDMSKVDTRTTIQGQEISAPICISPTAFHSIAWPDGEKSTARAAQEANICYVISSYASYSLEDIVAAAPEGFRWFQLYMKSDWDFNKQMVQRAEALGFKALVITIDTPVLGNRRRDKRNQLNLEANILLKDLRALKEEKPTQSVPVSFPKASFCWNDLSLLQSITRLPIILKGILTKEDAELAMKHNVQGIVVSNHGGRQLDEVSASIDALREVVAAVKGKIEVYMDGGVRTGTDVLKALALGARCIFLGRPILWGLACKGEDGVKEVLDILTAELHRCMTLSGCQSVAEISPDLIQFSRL
As to the kind of experiment: Inhibition of rat Hao2-mediated oxidation of 2-hydroxyoctanoic acid assessed as proportionate release of H2O2 at 1 uM.

Experiment [3] concerns the target T2, 2-Hydroxyacid oxidase 2 (Rattus norvegicus). As to the kind of experiment: Inhibition of rat Hao2-mediated oxidation of 2-hydroxyoctanoic acid assessed as proportionate release of H2O2 at 10 uM.
Experiment [4] has as its target T3, 2-Hydroxyacid oxidase 2 (Homo sapiens) (UniProt Q9NYQ3).
T3 sequence (whole entry): T1 sequence (Q9NYQ3 whole entry)
As to the kind of experiment: Inhibition of human Hao2-mediated oxidation of 2-hydroxyoctanoic acid assessed as proportionate release of H2O2 at 10 uM.

Experiment [5] addresses T3, 2-Hydroxyacid oxidase 2 (Homo sapiens). Put plainly: Inhibition of human Hao2-mediated oxidation of 2-hydroxyoctanoic acid assessed as proportionate release of H2O2 at 1 uM.
For experiment [6], the species on record is Rattus norvegicus. Put plainly: Selectivity ratio of IC50 for rat Hao1 to IC50 for rat Hao2.
Experiment [7] has as its target T4, 2-Hydroxyacid oxidase 2 (Rattus norvegicus, UniProt Q07523).
T4 sequence (Q07523 whole entry): T2 sequence (whole entry)
As to the kind of experiment: Inhibition of rat Hao2-mediated oxidation of 2-hydroxyoctanoic acid assessed as proportionate release of H2O2.

Among the data in ChEMBL document CHEMBL2169808, “Discovery of pyrazole carboxylic acids as potent inhibitors of rat long chain L-2-hydroxy acid oxidase” (Bioorg Med Chem Lett, 2012) are IC50, inhibition and Ratio IC50 values, retold here.

Usually IC50 stands for the midpoint of a concentration-inhibition curve. The term inhibition denotes the percentage by which the read-out fell short of the control. With `Cc1n[nH]c(C(=O)O)c1-c1cccc(-c2ccc(F)cc2)c1`, in experiment [1], the IC50 is 950 nM. Moreover, the inhibition worked out at 35% in experiment [2] and 79% in experiment [3].
As for `Cc1n[nH]c(C(=O)NS(C)(=O)=O)c1Cc1cccc(-c2ccc(F)cc2)c1`, the inhibition was determined as 8% in experiment [4], 8% in experiment [5], 0% in experiment [2] and 3% in experiment [3].
For `Cc1n[nH]c(C(=O)O)c1-c1ccc(-c2ccc(F)cc2)cc1`, the inhibition in experiment [4] worked out at 55%; in experiment [5], 19%; in experiment [2], 13%; in experiment [3], 65%. In addition, in experiment [6], the Ratio IC50 is > 150.
For the compound `CC(C)c1n[nH]c(C(=O)O)c1Cc1cccc(-c2ccc(F)cc2)c1`, the inhibition in experiment [4] worked out at 11%; in experiment [5] it was 2%. Besides, in experiment [6], the Ratio IC50 was > 150. Also, the IC50 in experiment [7] worked out at 500 nM.
`Cc1n[nH]c(C(=O)O)c1Cc1ccc(C(F)(F)F)cc1`: the inhibition is 12% in experiment [4], 9% in experiment [5], 35% in experiment [2] and 71% in experiment [3]. The Ratio IC50 in experiment [6] is > 150.
As for `Cc1n[nH]c(C(=O)O)c1Cc1cccc(-c2ccc(C(N)=O)cc2)c1`, the inhibition in experiment [4] is 60%; in experiment [5], 18%. Further, the Ratio IC50 in experiment [6] is > 150. For the same compound, the IC50 in experiment [7] is 200 nM.
On to `Cc1c(Cc2cccc(-c3ccc(F)cc3)c2)c(C(=O)O)nn1C`, for which the inhibition was 4% in experiment [4], 2% in experiment [5], 12% in experiment [2] and 57% in experiment [3].
As to `Cc1n[nH]c(C(=O)O)c1Cc1ccccc1Oc1ccccc1`, the inhibition in experiment [4] came to 49%; in experiment [5], 9%; in experiment [2] it was 10%; in experiment [3] it was 69%. Further, the Ratio IC50 in experiment [6] is > 150.
Taken in the same sequence, the figures for `Cc1n[nH]c(C(=O)O)c1Cc1cc2ccccc2o1` were 66%, 26%, 47%, 87% and > 150.
Regarding `CNC(=O)c1[nH]nc(C)c1Cc1cccc(-c2ccc(F)cc2)c1`, the inhibition in experiment [4] is 19%; in experiment [5], 7%; in experiment [2], 9%; in experiment [3], 53%.
Taken in the same sequence, the figures for `Cc1n[nH]c(C(=O)Nc2nnn[nH]2)c1Cc1cccc(-c2ccc(F)cc2)c1` were 0%, 0%, 0% and 9%.
In the case of `Cc1n[nH]c(C(=O)O)c1Cc1ccc(OC(F)(F)F)cc1`, the inhibition in experiment [4] was 34%; in experiment [5], 7%. The Ratio IC50 in experiment [6] is > 150. The IC50 in experiment [7] came out at 1300 nM.
The corresponding values for `Cc1n[nH]c(C(=O)O)c1CCc1cccc(-c2ccc(F)cc2)c1` are 45%, 9%, > 150 and 900 nM.
On to `Cc1n[nH]c(C(=O)O)c1-c1ccc(F)cc1`, for which the values for the inhibition in experiment [4], in experiment [5] and in experiment [2] were 13%, 3% and 1%, respectively. Besides, the Ratio IC50 in experiment [6] is > 150.
In the case of `Cc1n[nH]c(C(=O)O)c1Cc1cccc(F)c1`, the inhibition was found to be 13% in experiment [4] and 1% in experiment [5]. For the same compound, the Ratio IC50 in experiment [6] was > 150. Moreover, in experiment [7], the IC50 is 200 nM.
The corresponding values for `Cc1n[nH]c(C(=O)O)c1Cc1cccc(-c2ccc(OC(F)(F)F)cc2)c1` are 34%, 6%, > 150 and 300 nM.
On to `Cc1n[nH]c(C(=O)O)c1Cc1ccc(C#N)cc1`, for which the inhibition in experiment [4] turned out to be 6%; in experiment [5] it was 0%; in experiment [2], 33%; in experiment [3] it was 85%. In experiment [6], the Ratio IC50 is > 150.
Regarding `Cc1n[nH]c(C(=O)O)c1Cc1ccc2ccccc2c1`, the figures for the inhibition in experiment [4] and in experiment [5] were 12% and 8%, respectively. Also, the Ratio IC50 in experiment [6] was > 150. Besides, the IC50 in experiment [7] came out at 1100 nM.
`Cc1n[nH]c(C(=O)O)c1CCc1ccc(F)cc1`: the inhibition in experiment [4] came to 16%; in experiment [5], 5%; in experiment [2], 31%; in experiment [3] it was 81%. In addition, in experiment [6], the Ratio IC50 is > 150.
Regarding `Cc1n[nH]c(C(=O)O)c1Cc1cccc(OC(F)(F)F)c1`, the inhibition came out at 26% in experiment [4] and 2% in experiment [5]. Also, the Ratio IC50 in experiment [6] is > 150. In experiment [7], the IC50 was determined as 700 nM.
Turning to `Cc1nn(C)c(C(=O)O)c1Cc1cccc(-c2ccc(F)cc2)c1`, the inhibition was determined as 3% in experiment [4], 5% in experiment [5], 4% in experiment [2] and 10% in experiment [3].
Turning to `Cc1n[nH]c(C(=O)O)c1Cc1ccccc1-c1ccc(F)cc1`, the inhibition is 56% in experiment [4], 11% in experiment [5], 21% in experiment [2] and 73% in experiment [3]. Besides, the Ratio IC50 in experiment [6] was > 150.
Taken in the same sequence, the figures for `Cc1n[nH]c(C(=O)O)c1Cc1cccc(C(=O)O)c1` were 0%, 3%, 7%, 60% and > 150.
Consider `O=C(O)c1[nH]nc(-c2ccccc2)c1Cc1cccc(-c2ccc(F)cc2)c1`, for which the inhibition in experiment [4] stood at 14%; in experiment [5] it was 1%. In experiment [6], the Ratio IC50 was > 150. In addition, the IC50 in experiment [7] is 1800 nM.
Taken in the same sequence, the figures for `Cc1n[nH]c(C(=O)O)c1Cc1cccc(-c2ccccc2F)c1` were 22%, 5%, > 150 and 900 nM.
For `Cc1n[nH]c(C(=O)O)c1Cc1ccc(C(=O)O)cc1`, the inhibition amounted to 22% in experiment [4], 3% in experiment [5], 40% in experiment [2] and 69% in experiment [3]. The Ratio IC50 in experiment [6] is > 150.
